Reference: ChEMBL document CHEMBL1201862, “PubChem BioAssay data set” (2004)
Where “and” joins values, the source holds several entries; their conditions need not be identical. Equal entries are not always repeated.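 How tested: cells in 96-well plates exposed to compound for 48 hours at five concentrations. GI50: concentration for 50% inhibition of growth.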 Calls of active or inactive are those of the source. Rule as the data show it: active = GI50 up to about 1.1 µM and inactive = higher.

Tests used:
Experiment in all cases: growth of human tumour cells (NCI), 48 h
A498 = system: A498
CAKI-1 = system: CAKI-1
CCRF-CEM = system: CCRF-CEM
HCT-15 = system: HCT-15
MDA-N = system: MDA-N
Malme-3M = system: Malme-3M
NCI-H522 = system: NCI-H522
OVCAR-3 = system: OVCAR-3
SF-268 = system: SF-268
SF-539 = system: SF-539
SK-MEL-2 = system: SK-MEL-2
SN12C = system: SN12C
TK-10 = system: TK-10
UACC-257 = system: UACC-257
UACC-62 = system: UACC-62
HCC 2998 = system: HCC 2998
HL-60 = system: HL-60
LOX IMVI = system: LOX IMVI
OVCAR-8 = system: OVCAR-8
SR = system: SR

Compound	GI50 (A498)	GI50 (CAKI-1)	GI50 (CCRF-CEM)	GI50 (HCT-15)	GI50 (MDA-N)	GI50 (Malme-3M)	GI50 (NCI-H522)	GI50 (OVCAR-3)	GI50 (SF-268)	GI50 (SF-539)	GI50 (SK-MEL-2)	GI50 (SN12C)	GI50 (TK-10)	GI50 (UACC-257)	GI50 (UACC-62)	GI50 (HCC 2998)	GI50 (HL-60)	GI50 (LOX IMVI)	GI50 (OVCAR-8)	GI50 (SR)
O=C(Nc1ccc2[nH]c(C(=O)N3CC(CCl)c4c3cc([N+](=O)[O-])c3ccccc43)cc2c1)Nc1ccc2[nH]c(C(=O)N3CC(CCl)c4c3cc([N+](=O)[O-])c3ccccc43)cc2c1 (stereo not drawn)	> 100 µM (inactive)	> 100 µM (inactive)	22.4 µM (inactive)	> 100 µM	> 100 µM (inactive)	> 100 µM (inactive)	> 100 µM (inactive)	> 100 µM (inactive)	> 100 µM (inactive)	> 100 µM (inactive)	> 100 µM (inactive)	> 100 µM (inactive)	> 100 µM (inactive)	> 100 µM (inactive)	> 100 µM (inactive)	–	–	–	–	–
C[C@@H]1C(=O)O[C@H]1[C@H](O)CO	> 100 µM (inactive)	> 100 µM (inactive)	> 100 µM (inactive)	> 100 µM	> 100 µM (inactive)	–	–	> 100 µM (inactive)	–	–	> 100 µM (inactive)	> 100 µM (inactive)	> 100 µM (inactive)	> 100 µM (inactive)	> 100 µM (inactive)	> 100 µM (inactive)	> 100 µM (inactive)	> 100 µM (inactive)	> 100 µM (inactive)	–
Cc1ccc(S(=O)(=O)CN2C(=O)C(c3ccccc3)(c3ccccc3)C23OC(c2ccc(Cl)cc2)=CC3=O)cc1 (stereo not drawn)	> 10 µM (inactive)	> 10 µM (inactive)	> 10 µM (inactive)	> 10 µM	> 10 µM (inactive)	> 10 µM (inactive)	> 10 µM (inactive)	> 10 µM (inactive)	> 10 µM (inactive)	> 10 µM (inactive)	> 10 µM (inactive)	> 10 µM (inactive)	> 10 µM (inactive)	> 10 µM (inactive)	> 10 µM (inactive)	> 10 µM (inactive)	> 10 µM (inactive)	> 10 µM (inactive)	> 10 µM (inactive)	–
Clc1sc(Cl)c2c1[C@H](Br)C[C@@H]2Cl	–	26.2 µM (inactive)	17.5 µM (inactive)	17.1 µM	41.7 µM (inactive)	21.9 µM (inactive)	16.9 µM (inactive)	23.8 µM (inactive)	23 µM (inactive)	15.8 µM (inactive)	59.8 µM (inactive)	29.5 µM (inactive)	33.7 µM (inactive)	29.4 µM (inactive)	20.9 µM (inactive)	37.8 µM (inactive)	–	18.2 µM (inactive)	27.6 µM (inactive)	15.7 µM (inactive)
CCOC(CI)O[C@@H]1C=C[C@H](OC(C)=O)C1 (stereo partly drawn)	> 100 µM (inactive)	60.7 µM (inactive)	> 100 µM (inactive)	> 100 µM	> 100 µM (inactive)	> 100 µM (inactive)	–	33.7 µM (inactive)	> 100 µM (inactive)	> 100 µM (inactive)	> 100 µM (inactive)	> 100 µM (inactive)	–	> 100 µM (inactive)	> 100 µM (inactive)	> 100 µM (inactive)	–	–	> 100 µM (inactive)	–
Cc1n[nH]c(=O)n1-n1cccc1	> 100 µM (inactive)	> 100 µM (inactive)	> 100 µM (inactive)	> 100 µM	> 100 µM (inactive)	> 100 µM (inactive)	> 100 µM (inactive)	> 100 µM (inactive)	> 100 µM (inactive)	> 100 µM (inactive)	> 100 µM (inactive)	> 100 µM (inactive)	> 100 µM (inactive)	> 100 µM (inactive)	> 100 µM (inactive)	> 100 µM (inactive)	–	> 100 µM (inactive)	> 100 µM (inactive)	–
CCOC(=O)CC(NCc1ccc(/N=C/c2nc3ccc(C(F)(F)F)cc3nc2-c2ccccc2)cc1)C(=O)OCC (stereo not drawn)	> 61.1 µM (inactive)	> 100 µM (inactive)	> 100 µM (inactive)	> 100 µM	–	> 100 µM (inactive)	> 100 µM (inactive)	> 100 µM (inactive)	> 100 µM (inactive)	17.9 µM (inactive)	> 47.3 µM (inactive)	> 100 µM (inactive)	23.3 µM (inactive)	> 100 µM (inactive)	13.7 µM (inactive)	27 µM (inactive)	> 100 µM (inactive)	> 100 µM (inactive)	> 100 µM (inactive)	> 100 µM (inactive)
NC(=S)NNC(=S)NC(=O)c1ccco1	–	> 10 µM (inactive)	> 10 µM (inactive)	> 10 µM	> 10 µM (inactive)	> 10 µM (inactive)	–	> 10 µM (inactive)	> 10 µM (inactive)	–	> 10 µM (inactive)	> 10 µM (inactive)	–	> 10 µM (inactive)	> 10 µM (inactive)	> 10 µM (inactive)	> 10 µM (inactive)	> 10 µM (inactive)	> 10 µM (inactive)	> 10 µM (inactive)
CCOC(=O)Cn1c(C)nc2nn(Cc3ccccc3)cc2c1=O	> 100 µM (inactive)	–	> 100 µM (inactive)	> 100 µM	> 100 µM (inactive)	> 100 µM (inactive)	–	> 100 µM (inactive)	> 100 µM (inactive)	> 100 µM (inactive)	> 100 µM (inactive)	> 100 µM (inactive)	> 100 µM (inactive)	–	> 100 µM (inactive)	> 100 µM (inactive)	–	–	> 100 µM (inactive)	–
O=C1CCC(=O)N1CNc1ccc2c(c1)S(=O)(=O)c1ccccc1O2	> 100 µM (inactive)	> 100 µM (inactive)	> 100 µM (inactive)	> 100 µM	> 100 µM (inactive)	> 100 µM (inactive)	> 100 µM (inactive)	> 100 µM (inactive)	> 100 µM (inactive)	> 100 µM (inactive)	> 100 µM (inactive)	> 100 µM (inactive)	> 100 µM (inactive)	> 100 µM (inactive)	> 100 µM (inactive)	–	> 100 µM (inactive)	> 100 µM (inactive)	> 100 µM (inactive)	–
O=S(=O)(O)c1cc(O)c(/N=N\C2S(=O)(=O)OCCOS2(=O)=O)c2ccccc12	> 100 µM (inactive)	> 100 µM (inactive)	28.8 µM (inactive)	> 100 µM	> 100 µM (inactive)	> 100 µM (inactive)	> 100 µM (inactive)	> 100 µM (inactive)	> 100 µM (inactive)	54.3 µM (inactive)	> 100 µM (inactive)	> 100 µM (inactive)	> 100 µM (inactive)	> 100 µM (inactive)	91 µM (inactive)	> 100 µM (inactive)	22.2 µM (inactive)	61.9 µM (inactive)	> 100 µM (inactive)	–
CC1N=C(c2ccccc2)OC1=O (stereo not drawn)	> 100 µM (inactive)	> 100 µM (inactive)	> 100 µM (inactive)	> 100 µM	> 100 µM (inactive)	> 100 µM (inactive)	> 100 µM (inactive)	> 100 µM (inactive)	> 100 µM (inactive)	> 100 µM (inactive)	> 100 µM (inactive)	> 100 µM (inactive)	> 100 µM (inactive)	> 100 µM (inactive)	> 100 µM (inactive)	–	–	> 100 µM (inactive)	> 100 µM (inactive)	–
c1ccc(-c2cc(-c3cc(-c4ccccc4)n(-c4ccccc4)n3)nn2-c2ccccc2)cc1	> 100 µM (inactive)	> 100 µM (inactive)	> 100 µM (inactive)	> 100 µM	> 100 µM (inactive)	> 100 µM (inactive)	> 100 µM (inactive)	> 100 µM (inactive)	> 100 µM (inactive)	> 100 µM (inactive)	> 100 µM (inactive)	> 100 µM (inactive)	> 100 µM (inactive)	> 100 µM (inactive)	> 100 µM (inactive)	> 100 µM (inactive)	–	–	> 100 µM (inactive)	–
CC(C)(C)N/C(N)=N/C#N	–	> 100 µM (inactive)	> 100 µM (inactive)	> 100 µM	> 100 µM (inactive)	> 100 µM (inactive)	–	–	> 100 µM (inactive)	> 100 µM (inactive)	> 100 µM (inactive)	> 100 µM (inactive)	> 100 µM (inactive)	> 100 µM (inactive)	> 100 µM (inactive)	> 100 µM (inactive)	> 100 µM (inactive)	> 100 µM (inactive)	> 100 µM (inactive)	> 100 µM (inactive)
C[N+](C)(C)CC(=O)N/N=C(\C(=O)NC1=C(Cl)C(=O)c2ccccc2C1=O)C(C#N)c1csc(-c2ccc([N+](=O)[O-])cc2)n1 (stereo not drawn)	> 100 µM (inactive)	> 100 µM (inactive)	> 100 µM (inactive)	> 100 µM	–	> 100 µM (inactive)	> 100 µM (inactive)	> 100 µM (inactive)	> 100 µM (inactive)	> 100 µM (inactive)	> 100 µM (inactive)	> 100 µM (inactive)	> 100 µM (inactive)	> 100 µM (inactive)	> 100 µM (inactive)	> 100 µM (inactive)	> 100 µM (inactive)	> 100 µM (inactive)	> 100 µM (inactive)	80.5 µM (inactive)
C[C@H]1CCC/C=C/[C@@H]2C[C@H](O)C[C@H]2[C@H](O)/C=C/C(=O)O1 [BREFELDIN A]	< 10 nM (active) and 17.4 nM (active)	–	–	0.0692 µM and 0.043 µM	40.6 nM (active) and 42.4 nM (active)	18.1 nM (active) and 11.3 nM (active)	–	< 18.2 nM (active) and 30.5 nM (active)	–	< 21.4 nM (active) and 21.1 nM (active)	47.4 nM (active) and 30.6 nM (active)	–	36.7 nM (active) and 40.8 nM (active)	27.5 nM (active) and 16 nM (active)	< 14.2 nM (active) and 18.2 nM (active)	–	–	13.2 nM (active) and 12.3 nM (active)	< 12.9 nM (active) and 22.2 nM (active)	–
